Measured values taken from PubChem BioAssay (NCI).
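Five compound concentrations were applied to cells in 96-well plates for 48 hours; endpoints were derived by simple linear interpolation of the resulting dose-response curve. At the GI50, growth is halved. TGI is the concentration that stops growth completely.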

How the values were obtained:
Experiment in all cases: NCI anticancer screen, dose series, 48 h
[1] = tested on: A498 renal
[2] = tested on: A549 NSCLC
[3] = tested on: ACHN renal
[4] = tested on: BT-549 breast
[5] = tested on: CAKI-1 renal
[6] = tested on: CCRF-CEM leukemia
[7] = tested on: COLO 205 colon
[8] = tested on: DU-145 prostate
[9] = tested on: HCC-2998 colon
[10] = tested on: HCT-116 colon
[11] = tested on: HCT-15 colon
[12] = tested on: HOP-62 NSCLC
[13] = tested on: HS 578T breast
[14] = tested on: HT29 colon
[15] = tested on: IGROV1 ovarian
[16] = tested on: K-562 leukemia
[17] = tested on: KM12 colon
[18] = tested on: LOX IMVI melanoma
[19] = tested on: M14 melanoma
[20] = tested on: MCF7 breast
[21] = tested on: MDA-MB-231 breast
[22] = tested on: MDA-MB-435
[23] = tested on: MOLT-4 leukemia
[24] = tested on: NCI-H226 lung
[25] = tested on: NCI-H23 lung
[26] = tested on: NCI-H460 lung
[27] = tested on: NCI-H522 lung
[28] = tested on: NCI/ADR-RES ovarian
[29] = tested on: OVCAR-3 ovarian
[30] = tested on: OVCAR-4 ovarian
[31] = tested on: OVCAR-5 ovarian
[32] = tested on: OVCAR-8 ovarian
[33] = tested on: PC-3 prostate
[34] = tested on: RPMI-8226 leukemia
[35] = tested on: RXF 393 renal
[36] = tested on: SF-268 CNS
[37] = tested on: SF-295 CNS
[38] = tested on: SF-539 CNS
[39] = tested on: SK-MEL-2 melanoma
[40] = tested on: SK-MEL-28 melanoma
[41] = tested on: SK-MEL-5 melanoma
[42] = tested on: SK-OV-3 ovarian
[43] = tested on: SN12C renal
[44] = tested on: SNB-19 CNS
[45] = tested on: SNB-75 CNS
[46] = tested on: SR leukemia
[47] = tested on: SW-620 colon
[48] = tested on: T-47D breast
[49] = tested on: TK-10 renal
[50] = tested on: U251 CNS
[51] = tested on: UACC-257 melanoma
[52] = tested on: UACC-62 melanoma

`Nc1ncc(-c2ccc3ncnc(N4CCc5ccc(Cl)cc54)c3c2)cn1` was tested, and the GI50 [1] was 0.248 µM, the TGI [1] was 0.8 µM and the GI50 [2] was 1.26 µM. The TGI [2] was > 100 µM, the GI50 [3] was 0.584 µM and the TGI [3] was > 100 µM. The GI50 [4] was 0.603 µM, the TGI [4] was 8.51 µM and the GI50 [5] was 1.19 µM. For the same molecule, the TGI [5] was > 100 µM, the GI50 [6] was 1.02 µM and the TGI [6] was > 100 µM. It also gave a GI50 [7] of 2.01 µM, a TGI [7] of 9.53 µM and a GI50 [8] of 0.971 µM. The TGI [8] was > 100 µM, the GI50 [9] was 1.5 µM and the TGI [9] was 87.2 µM. It also gave a GI50 [10] of 1.68 µM, a TGI [10] of 10.8 µM and a GI50 [11] of 1.33 µM. For the same molecule, the TGI [11] was > 100 µM, the GI50 [12] was 0.743 µM and the TGI [12] was > 100 µM. For the same molecule, the GI50 [13] was 0.437 µM, the TGI [13] was 4.39 µM and the GI50 [14] was 1.06 µM. For the same molecule, the TGI [14] was 82.6 µM, the GI50 [15] was 0.291 µM and the TGI [15] was 2.34 µM. For the same molecule, the GI50 [16] was 2.22 µM, the TGI [16] was > 100 µM and the GI50 [17] was 2.34 µM. The TGI [17] was 97.6 µM, the GI50 [18] was 0.87 µM and the TGI [18] was 23.5 µM. For the same molecule, the GI50 [19] was 1.88 µM, the TGI [19] was > 100 µM and the GI50 [20] was 0.684 µM. For the same molecule, the TGI [20] was 31.7 µM, the GI50 [21] was 0.994 µM and the TGI [21] was > 100 µM. The GI50 [22] was 2.19 µM, the TGI [22] was > 100 µM and the GI50 [23] was 0.563 µM. For the same molecule, the TGI [23] was 3.81 µM, the GI50 [24] was 1.35 µM and the TGI [24] was 27.4 µM. The GI50 [25] was 1.9 µM, the TGI [25] was > 100 µM and the GI50 [26] was 1.46 µM. For the same molecule, the TGI [26] was > 100 µM, the GI50 [27] was 2.66 µM and the TGI [27] was 15.8 µM. The GI50 [28] was 1.86 µM, the TGI [28] was > 100 µM and the GI50 [29] was 1.88 µM. The TGI [29] was > 100 µM, the GI50 [30] was 1.61 µM and the TGI [30] was 24.8 µM. The GI50 [31] was 0.532 µM, the TGI [31] was > 100 µM and the GI50 [32] was 1.84 µM. The TGI [32] was > 100 µM, the GI50 [33] was 0.739 µM and the TGI [33] was > 100 µM. The GI50 [34] was 0.584 µM, the TGI [34] was 4.44 µM and the GI50 [35] was 0.606 µM. For the same molecule, the TGI [35] was 3 µM, the GI50 [36] was 1.63 µM and the TGI [36] was > 100 µM. It also gave a GI50 [37] of 1.03 µM, a TGI [37] of 6.89 µM and a GI50 [38] of 1.11 µM. For the same molecule, the TGI [38] was 3.79 µM, the GI50 [39] was 1.56 µM and the TGI [39] was 4.53 µM. For the same molecule, the GI50 [40] was 2.01 µM, the TGI [40] was > 100 µM and the GI50 [41] was 1.46 µM. For the same molecule, the TGI [41] was 4.94 µM, the GI50 [42] was 1.37 µM and the TGI [42] was 7.03 µM. The GI50 [43] was 0.813 µM, the TGI [43] was > 100 µM and the GI50 [44] was 2.55 µM. For the same molecule, the TGI [44] was > 100 µM, the GI50 [45] was 0.418 µM and the TGI [45] was 3.98 µM. For the same molecule, the GI50 [46] was 1.04 µM, the TGI [46] was 18.1 µM and the GI50 [47] was 2.83 µM. The TGI [47] was > 100 µM, the GI50 [48] was 0.313 µM and the TGI [48] was 30 µM. It also gave a GI50 [49] of 0.354 µM, a TGI [49] of 3.85 µM and a GI50 [50] of 2.46 µM. For the same molecule, the TGI [50] was > 100 µM, the GI50 [51] was 2.98 µM and the TGI [51] was > 100 µM. For the same molecule, the GI50 [52] was 1.31 µM and the TGI [52] was 5.98 µM.
